Test results: patent publication US20030108556A1 (priority 2001, published 2003)
pIC50: −log10 of the molar value. Entries after “also recorded” stand apart in the source; their conditions may differ. Ends that are not written are not given here.

How the values were obtained:
PA63 heptamer [1] = molecular target: T1, PA63 heptamer (Bacillus anthracis, UniProt P13423)
PA63 heptamer [2] = molecular target: T1, PA63 heptamer; assay: biochemical; assay type: binding

T1 sequence (P13423 197-764 limits assumed): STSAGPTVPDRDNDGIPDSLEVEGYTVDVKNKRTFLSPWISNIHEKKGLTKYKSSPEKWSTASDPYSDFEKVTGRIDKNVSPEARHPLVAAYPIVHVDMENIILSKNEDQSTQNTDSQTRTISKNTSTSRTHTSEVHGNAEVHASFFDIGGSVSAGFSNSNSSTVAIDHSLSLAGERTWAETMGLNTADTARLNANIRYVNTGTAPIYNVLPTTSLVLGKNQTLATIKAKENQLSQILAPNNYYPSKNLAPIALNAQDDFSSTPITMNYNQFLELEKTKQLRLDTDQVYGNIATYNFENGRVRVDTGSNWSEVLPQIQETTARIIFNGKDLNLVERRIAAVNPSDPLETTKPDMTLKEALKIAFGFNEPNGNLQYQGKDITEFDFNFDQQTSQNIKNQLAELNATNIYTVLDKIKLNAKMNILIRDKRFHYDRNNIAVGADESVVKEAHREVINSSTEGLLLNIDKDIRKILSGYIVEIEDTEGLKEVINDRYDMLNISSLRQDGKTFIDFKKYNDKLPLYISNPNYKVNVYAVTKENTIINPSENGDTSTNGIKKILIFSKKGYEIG

Substance | properties of phage compared with P1 and P2 (PA63 heptamer [1]) | effect on binding of radiolabeled LFN to PA63 on CHO cells (PA63 heptamer [2]) | other results
CWSSFAWYC | showed the same properties as P1 and P2 |  | 
FDLPFTMSTPTP [reference compound] |  | no effect | 
HTSTYWWLD |  | all but one, HTSTYWWLD, could prevent; also recorded: could not compete | 
HTSTYWWLDGAP |  |  | pIC50 (PA63 heptamer [2]): ~3.82
HYTYWWL | showed the same properties as P1 and P2 |  | 
